Experimental data from patent publication US9446026B2, “Ocular formulations for drug-delivery to the posterior segment of the eye” (PanOptica, Inc., priority 2013, dated 2016).

Experiments:
[1] = pKa (water) of Compound-I drug substance; format: physicochemical
Text: The embodiments provide three formulations of Compound-I or its free base—the Formula II compound.

[2] = biological target: recombinant FGFR-2 tyrosine kinase (Homo sapiens (Human), UniProt P21802); experiment: Inhibition of recombinant FGFR-2 tyrosine kinase using exogenous substrate; format: biochemical
recombinant FGFR-2 tyrosine kinase, sequence (P21802 22-821): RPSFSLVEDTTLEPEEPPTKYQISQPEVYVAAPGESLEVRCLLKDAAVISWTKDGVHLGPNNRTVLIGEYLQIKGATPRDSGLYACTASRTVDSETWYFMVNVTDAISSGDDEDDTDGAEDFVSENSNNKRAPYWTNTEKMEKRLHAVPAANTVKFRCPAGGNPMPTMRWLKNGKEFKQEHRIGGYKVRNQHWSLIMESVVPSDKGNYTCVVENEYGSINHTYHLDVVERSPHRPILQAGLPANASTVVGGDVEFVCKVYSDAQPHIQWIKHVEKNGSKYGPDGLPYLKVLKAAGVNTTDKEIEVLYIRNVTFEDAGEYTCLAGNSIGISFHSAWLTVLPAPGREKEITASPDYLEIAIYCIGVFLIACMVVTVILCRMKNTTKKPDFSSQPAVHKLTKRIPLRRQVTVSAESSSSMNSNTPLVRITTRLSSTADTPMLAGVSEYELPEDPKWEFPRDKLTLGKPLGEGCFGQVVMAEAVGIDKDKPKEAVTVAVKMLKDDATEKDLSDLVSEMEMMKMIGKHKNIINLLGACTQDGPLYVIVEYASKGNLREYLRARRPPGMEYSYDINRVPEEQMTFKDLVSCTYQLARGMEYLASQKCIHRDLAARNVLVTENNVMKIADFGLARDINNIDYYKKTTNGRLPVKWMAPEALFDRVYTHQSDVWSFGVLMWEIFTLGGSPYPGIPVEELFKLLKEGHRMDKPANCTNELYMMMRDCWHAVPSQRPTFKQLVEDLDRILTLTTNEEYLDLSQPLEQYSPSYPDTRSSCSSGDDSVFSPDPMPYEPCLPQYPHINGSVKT

[3] = biological target: FGFR-2 (Homo sapiens (Human), UniProt P21802); experiment: In vitro inhibition of tyrosine kinases; format: biochemical
FGFR-2, sequence (P21802 22-821): as above

[4] = PK with topical ocular Compound-I in sodium phosphate-based Gel Drop; format: in vivo; conditions: Dutch-belted rabbits
Text: The Gel Drop of Compound-I was applied to eyes of Dutch-belted rabbits.
The Gel Drop formulations (listed in Table 6) differed in several aspects, such as API concentration, sodium phosphate concentration, presence or absence of tonicity (glycerin) or preservative (benzalkoniumchloride/BAK) agents, solubilizing surfactants (polysorbate 80, tyloxapol, and/or poloxamer), and pH.

[5] = 5-day PK with topical ocular Compound-I in cyclodextrin-based solutions (Example 6); format: in vivo; conditions: HPβCD solutions, Dutch-Belted rabbits, q.d.; 24 hr after first daily dose on day 4 (Groups 5b, 6b); LLOQ 0.0218 μM
Experimental: All doses were administered with ±1 hour of the scheduled dose time, except on day 1 for Groups 1, 4, and 10. The first dose on day 1 was administered at 12:00 PM, and the second dose (for Groups 1 and 10) was administered approximately 4 hours after. This was due to delayed arrival of formulations. All other dosing for these groups was as scheduled. On day 1, Groups 4-8, and 11-12 received one dose (q.d.) for four (4) days. On days 1 through 4, Groups 1-3, and 9-10 received b.i.d. dosing approximately 8 hours apart for four (4) days.
Ocular sampling occurred one hour following the first daily dose on day 5 for all groups, except Groups 5b and 6b, where ocular sampling occurred 24 hours after the first daily dose on day 4.
Blood samples for plasma collection were obtained just prior to scheduled euthanasia for all animals. […] Cornea, central retina, and central choroid samples from groups 1-12 were assayed. Aqueous humor, peripheral retina, and peripheral choroid samples were not assayed.

[6] = Ocular fluid and tissue concentrations, 0.4% Compound-I cyclodextrin solutions (Example 7, 24-day study); format: in vivo, Dutch-Belted rabbits; conditions: Dutch-Belted, rabbit, topical
Experimental: The ocular solution of Compound-I comprising cyclodextrin was prepared and tested in different groups of animals.

[7] = Ocular tissue concentrations, 0.3% Compound-I ophthalmic gel drop twice daily (toxicology study); format: in vivo, Dutch-Belted rabbits
[8] = Ocular tissue concentrations, 0.3% Compound-I Tris-based suspension twice daily 30 days; format: in vivo, Dutch-Belted rabbits; conditions: Dutch-Belted, rabbit, topical
[9] = Ocular toxicology: clinical ophthalmic and microscopic examinations; format: in vivo, Dutch-Belted rabbits
Text: (§1) Retinal function was normal in all test article and vehicle treated groups during full-field electroretinograms performed in rabbits.

[10] = parameters: species or system Dutch-Belted rabbits and beagle dogs; conditions: in vivo
Text: Animals that received topical ocular administration of the tromethamine-based suspension were able to tolerate up to higher level of the active agent concentration in the formulation, as compared to equimolar formulations of the sodium phosphate-based Gel Drop.
Overall, the combination of decreased corneal exposure and corresponding improved ocular tolerability, while simultaneously maintaining or promoting drug delivery to the posterior segment target tissues, along with improved physicochemical stability, will provide greater benefit to patients compared to the ophthalmic Gel Drop formulation.
as §1

[11] = parameters: species or system Dutch-belted rabbits; conditions: rabbit, in vivo
[12] = Solubility of Compound-I in cyclodextrin ophthalmic solution; format: physicochemical; conditions: HP-β-CD at ≥1:6 molar ratio or SBE-β-CD at ≥1:2 ratio
[13] = tested on: pathologic retinal and choroidal neovascularization; experiment: Topical ocular delivery in rodent models of retinal and choroidal neovascularization; format: in vivo
[14] = tested on: pathologic angiogenesis; experiment: Systemic administration in murine cornea and rat growth plate models; format: in vivo
[15] = tested on: human tumor xenographs; experiment: Human tumor xenographs in athymic mice; format: in vivo; conditions: systemic administration
[16] = 1- to 5-day PK with topical ocular Compound-I formulations (Example 5); conditions: Dutch Belted, rabbit, aqueous humor, Average Concentration of Compound-I, Dutch Belted rabbits, topical ocular q.d. or b.i.d., 24 hr post-dose, Group per row, LLOQ 0.000903 μM
Experimental: All doses were administered within ±1 hour of the scheduled dose time. On day 1, Groups 1, 2, 4-6, 8, 10, 11, 13, 15, and 17 received one dose (q.d.) for either one (1) or four (4) days. […] Animals in Groups 18 and 19 received b.i.d dosing of vehicle only formulations for five (5) consecutive days.
Ocular sampling occurred for Group 1 at 0.5, 1, 2, 4, 8, or 24 hours post-dose relative to the day 1 dose. Ocular sampling occurred for Groups 2 and 6 at 1, 8, and 24 hours post-dose relative to the day 5 morning dose. Ocular sampling for Groups 3, 7, 8, 11, and 13 occurred at 1 and 24 hours post-dose relative to the day 5 morning dose. Ocular sampling for Groups 4, 9, 10, 12, 14, 15, 16, and 17 occurred at 1 hour post-dose relative to the day 5 morning dose. Group 5 ocular sampling occurred at 0.5, 1, 2, 4, 8, and 24 hours post-dose relative to the day 1 dose. Animals in Groups 18 and 19 were followed only by clinical observations for five (5) days.
Aqueous humor, cornea, central and peripheral retina, and central and peripheral choroid samples were collected. Aqueous humor, cornea, central retina, and central choroid samples were then assayed. Peripheral retina and peripheral choroid samples were assayed only for Groups 1-8, 12, 14, and 16 per study protocol.
Rabbit aqueous humor, cornea, central and peripheral retina, and central and peripheral choroid samples were analyzed.

[17] = 0.3% Ophthalmic Gel Drop, Twice Daily 29 days
[18] = 0.3% ophthalmic gel drop with and without benzylalkonium chloride, twice daily, Dutch-Belted rabbits
[19] = Dutch-Belted (rabbit), beagle (dog), rabbit, dog

## Cl.NC(=O)c1c(OCc2c(F)cc(Br)cc2F)nsc1NC(=O)NCCCCN1CCCC1 [Compound-I, 3-[(4-bromo-2,6-difluorophenyl)methoxy]-5-[[[[4-(1-pyrrolidinyl)butyl]amino]carbonyl]amino]-4-isothiazolecarboxamide hydrochloride]
[1]
  pKa: 10.5
[2]
  IC50: 8.79 nM
[2]; hydrochloride
  IC50, recombinant FGFR-2 tyrosine kinase: 5 ng/mL and (5) ng/mL
[3]; 10-point titration curve (257 nM-5000 nM)
  IC50: 3.08 nM
[3]; 10-point titration curve, hydrochloride
  IC50, FGFR-2: 1.75 ng/mL and (1.75) ng/mL
[4]
  Delivery of Compound-I to posterior segment tissues: dose-dependent and dose-frequency dependent
[5]
  Average Concentration, Central Retina: <LLOQ
[6]; aqueous humor, 0.4 % (4 mg/mL), 30 μL/eye, Average concentration of Compound-I, Aqueous Humor, Group 8: 0.4% Compound-I in 8.41% KLEPTOSE HPB, 0.142% phosphate, 30 μL/eye, 2 doses per day
  concentration at 1 h: 6.56 nM
[6]; aqueous humor, 0.4 % (4 mg/mL), 30 μL/eye, Average concentration of Compound-I, Aqueous Humor, Group 9: 0.4% Compound-I in […] KLEPTOSE HPB, 0.142% phosphate, 30 μL/eye, 2 doses per day
  concentration at 1 h: 3.13 nM
[6]; aqueous humor, 0.4 % (4 mg/mL), 30 μL/eye, Average concentration of Compound-I, Aqueous Humor, Group 10: 0.4% Compound-I in 4.88% CAPTISOL, 0.142% phosphate, 30 μL/eye, 2 doses per day
  concentration at 1 h: 1.84 nM
[6]; aqueous humor, 0.4 % (4 mg/mL), 30 μL/eye, Average concentration of Compound-I, Aqueous Humor, Group 11: 0.4% Compound-I in 4.88% CAPTISOL, […] phosphate, 30 μL/eye, 2 doses per day
  concentration at 1 h: 4.03 nM
[6]; aqueous humor, 0.4 %, Aqueous humor concentration of Compound-I (range over groups), 0.4% Compound-I cyclodextrin solutions (KLEPTOSE or CAPTISOL), twice daily
  concentration at 1 h: 3.13 to 6.56 nM
[6]; central choroid, 0.4 %
  concentration at 1 h: 259 to 769 nM
[6]; central choroid, 0.4 % (4 mg/mL), 0.4% Ophthalmic Solution (CAPTISOL), Twice Daily 24 days, read-out: Central Choroid [Compound I]
  concentration at 1 h: 212 nM
[6]; central choroid, 0.4 % (4 mg/mL), 0.4% Ophthalmic Solution (KLEPTOSE HP), Twice Daily 24 days, read-out: Central Choroid [Compound I]
  concentration at 1 h: 259 nM
[6]; central choroid, 0.4 % (4 mg/mL), 0.4% Ophthalmic Solution (KLEPTOSE HPB), Twice Daily 24 days, read-out: Central Choroid [Compound I]
  concentration at 1 h: 769 nM
[6]; central choroid, 0.4 % (4 mg/mL), 30 μL/eye, Average concentration of Compound-I, Central Choroid, Group 8: 0.4% Compound-I in 8.41% KLEPTOSE HPB, 0.142% phosphate, 30 μL/eye, 2 doses per day
  concentration at 1 h: 769 nM
[6]; central choroid, 0.4 % (4 mg/mL), 30 μL/eye, Average concentration of Compound-I, Central Choroid, Group 9: 0.4% Compound-I in […] KLEPTOSE HPB, 0.142% phosphate, 30 μL/eye, 2 doses per day
  concentration at 1 h: 259 nM
[6]; central choroid, 0.4 % (4 mg/mL), 30 μL/eye, Average concentration of Compound-I, Central Choroid, Group 10: 0.4% Compound-I in 4.88% CAPTISOL, 0.142% phosphate, 30 μL/eye, 2 doses per day
  concentration at 1 h: 212 nM
[6]; central choroid, 0.4 % (4 mg/mL), 30 μL/eye, Average concentration of Compound-I, Central Choroid, Group 11: 0.4% Compound-I in 4.88% CAPTISOL, […] phosphate, 30 μL/eye, 2 doses per day
  concentration at 1 h: 345 nM
[6]; central retina, 0.4 % (4 mg/mL), 30 μL/eye, Average concentration of Compound-I, Central Retina, Group 8: 0.4% Compound-I in 8.41% KLEPTOSE HPB, 0.142% phosphate, 30 μL/eye, 2 doses per day
  concentration at 1 h: 124 nM
[6]; central retina, 0.4 % (4 mg/mL), 30 μL/eye, Average concentration of Compound-I, Central Retina, Group 9: 0.4% Compound-I in […] KLEPTOSE HPB, 0.142% phosphate, 30 μL/eye, 2 doses per day
  concentration at 1 h: 74.1 nM
[6]; central retina, 0.4 % (4 mg/mL), 30 μL/eye, Average concentration of Compound-I, Central Retina, Group 10: 0.4% Compound-I in 4.88% CAPTISOL, 0.142% phosphate, 30 μL/eye, 2 doses per day
  concentration at 1 h: 53.1 nM
[6]; central retina, 0.4 % (4 mg/mL), 30 μL/eye, Average concentration of Compound-I, Central Retina, Group 11: 0.4% Compound-I in 4.88% CAPTISOL, […] phosphate, 30 μL/eye, 2 doses per day
  concentration at 1 h: 101 nM
[6]; central retina, 0.4 %, Central retina concentration of Compound-I (range over groups), 0.4% Compound-I cyclodextrin solutions (KLEPTOSE or CAPTISOL), twice daily
  concentration at 1 h: 53.1 to 124 nM
[6]; cornea, 0.4 %
  concentration at 1 h: 6490 to 30000 nM
[6]; cornea, 0.4 % (4 mg/mL), 0.4% Ophthalmic Solution (CAPTISOL), Twice Daily 24 days, read-out: Cornea [Compound I]
  concentration at 1 h: 6490 nM
[6]; cornea, 0.4 % (4 mg/mL), 0.4% Ophthalmic Solution (KLEPTOSE HP), Twice Daily 24 days, read-out: Cornea [Compound I]
  concentration at 1 h: 8050 nM
[6]; cornea, 0.4 % (4 mg/mL), 0.4% Ophthalmic Solution (KLEPTOSE HPB), Twice Daily 24 days, read-out: Cornea [Compound I]
  concentration at 1 h: 12300 nM
[6]; cornea, 0.4 % (4 mg/mL), 30 μL/eye, Average concentration of Compound-I, Cornea, Group 8: 0.4% Compound-I in 8.41% KLEPTOSE HPB, 0.142% phosphate, 30 μL/eye, 2 doses per day
  concentration at 1 h: 12300 nM
[6]; cornea, 0.4 % (4 mg/mL), 30 μL/eye, Average concentration of Compound-I, Cornea, Group 9: 0.4% Compound-I in […] KLEPTOSE HPB, 0.142% phosphate, 30 μL/eye, 2 doses per day
  concentration at 1 h: 8050 nM
[6]; cornea, 0.4 % (4 mg/mL), 30 μL/eye, Average concentration of Compound-I, Cornea, Group 10: 0.4% Compound-I in 4.88% CAPTISOL, 0.142% phosphate, 30 μL/eye, 2 doses per day
  concentration at 1 h: 6490 nM
[6]; cornea, 0.4 % (4 mg/mL), 30 μL/eye, Average concentration of Compound-I, Cornea, Group 11: 0.4% Compound-I in 4.88% CAPTISOL, […] phosphate, 30 μL/eye, 2 doses per day
  concentration at 1 h: 30000 nM
[7]; [17]
  Central Choroid [Compound I]: 0.340 µM
  Cornea [Compound I]: 236.00 µM
[7]; [18]
  Mean ocular tissue concentration, aqueous humor: 0.0197 to 0.0395 µM
  Mean ocular tissue concentration, peripheral choroid: 2.79 to 4.10 µM
  Mean ocular tissue concentration, peripheral retina: 0.150 to 0.309 µM
[8]; aqueous humor, 0.3% Tris-based suspensions with and without benzylalkonium chloride, twice daily, 1 hour after first daily dose on day 30, read-out: Mean ocular tissue concentration, aqueous humor
  concentration at 1 h: 1.27 to 1.45 nM
[8]; central choroid, 0.3 % w/v, 0.3% Tris Suspension, Twice Daily 30 days, read-out: Central Choroid [Compound I]
  concentration at 1 h: 319 nM
[8]; central choroid, 0.3% Tris-based suspensions with and without benzylalkonium chloride, twice daily, 1 hour after first daily dose on day 30, read-out: Mean ocular tissue concentration, central choroid
  concentration at 1 h: 303 to 319 nM
[8]; central retina, 0.3% Tris-based suspensions with and without benzylalkonium chloride, twice daily, 1 hour after first daily dose on day 30, read-out: Mean ocular tissue concentration, central retina
  concentration at 1 h: 49.5 to 59.2 nM
[8]; cornea, 0.3 % w/v, 0.3% Tris Suspension, Twice Daily 30 days, read-out: Cornea [Compound I]
  concentration at 1 h: 2690 nM
[8]; cornea, 0.3% Tris-based suspensions with and without benzylalkonium chloride, twice daily, 1 hour after first daily dose on day 30, read-out: Mean ocular tissue concentration, cornea
  concentration at 1 h: 2690 to 3100 nM
[8]; peripheral choroid, 0.3% Tris-based suspensions with and without benzylalkonium chloride, twice daily, 1 hour after first daily dose on day 30, read-out: Mean ocular tissue concentration, peripheral choroid
  concentration at 1 h: 781 to 1210 nM
[8]; peripheral retina, 0.3% Tris-based suspensions with and without benzylalkonium chloride, twice daily, 1 hour after first daily dose on day 30, read-out: Mean ocular tissue concentration, peripheral retina
  concentration at 1 h: 81.9 to 86.8 nM
[9]; 0.3% w/v twice daily for 30 days
  Microscopic evaluation of eyes, Tris-based suspension: considered normal
[9]; Dutch-belted rabbits, topical ocular
  Findings attributed to test-article after 30 days of 0.6% cyclodextrin-based solution: no untoward findings
[9]; rabbit, in vivo
  Tolerability of HP-β-CD cyclodextrin-based solutions, 30 days: well tolerated
  Tolerability of Tris-based suspension formulations: well tolerated
  Tolerability of cyclodextrin-based solutions, 24 days: well-tolerated
[9]; rabbits, all test article treated groups
  Retinal function, full-field electroretinograms: normal
[10]; [19]
  Corneal exposure of ophthalmic solution lower than equimolar ophthalmic gel drops: 5 to 10 fold
  Corneal tissue exposure with ophthalmic gel drops: ≥ 100 µM
[10]
  Alterations of deeper structures of the eye or optic nerve, ophthalmic gel drops: No untoward alterations
  Clinical or histopathologic findings with ophthalmic solution: free of untoward clinical or histopathologic findings
[11]; Dutch-belted
  Reduction of corneal exposure with suspension-based and cyclodextrin formulations: 10-100 ×
[11]
  Corneal concentrations with Gel Drop compared to Tris-based suspensions: fifty-fold to hundred-fold higher
  Corneal concentrations with Gel Drop compared to cyclodextrin based solution: five-fold to fifteen-fold higher
[12]
  Compound-I dose strengths solubilised by cyclodextrin: 0.1-1.0%
[13]
  Inhibition of pathologic retinal and choroidal neovascularization: significant inhibition
[14]
  Inhibition of pathologic angiogenesis: shown to inhibit
[15]
  Inhibition of growth of human tumor xenographs: shown to inhibit
[16]
  concentration at 24 h: 5.18 nM
